Measurements from US6949571B2, “1,2-dihydropyridine compounds, process for preparation of the same and use thereof” (Eisai Co., Ltd., priority 2000, dated 2005).
Like-named read-outs stand apart in the source and are kept apart here.

Tested on: AMPA receptor
[1] = Table 3, primary culture of rat embryo cerebral cortex nerve cells, 2 μM AMPA, 1 μM MK-801
[2] = Table 2, suppression of AMPA-induced calcium influx into nerve cells
[3] = Table 1, primary culture of rat embryo cerebral cortex nerve cells, 2 μM AMPA, 1 μM MK-801
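Further: primary rat embryonic cortical neurons grown on an astrocyte layer in 96-well plates, used after at least 8 to 10 days in culture, Fura2-AM fluorescence ratio at 340/380 nm excitation.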

IC50 [2]	SMILES	IC50 [3]	further results
–	N#Cc1ccccc1-c1cc(-c2nc3ccccc3[nH]2)cn(-c2ccccc2)c1=O [Example 386, 3-(2-Cyanophenyl)-5-(1H-benzimidazol-2-yl)-1-phenyl-1,2-dihydropyridin-2-one]	–	IC50 [1]: 3500 nM
–	N#Cc1ccccc1-c1cc(-c2ccccc2N)cn(-c2ccccc2)c1=O [Example 2, 5-(2-Aminophenyl)-3-(2-cyanophenyl)-1-phenyl-1,2-dihydropyridin-2-one]	1800 nM	–
4200 nM	CC(=O)Nc1cccc(-c2cc(-c3ccccc3C#N)c(=O)n(-c3ccccc3)c2)n1 [Example 229, 5-[(6-Acetylamino)pyridin-2-yl]-3-(2-cyanophenyl)-1-phenyl-1,2-dihydropyridin-2-one]	–	–
100 nM	N#Cc1ccccc1-c1cc(-c2ncccn2)cn(-c2cccc(N)c2)c1=O [Example 218, 1-(3-Aminophenyl)-3-(2-cyanophenyl)-5-(2-pyrimidinyl)-1,2-dihydropyridin-2-one]	–	–
–	COc1cccc(-n2cc(-c3ccccn3)cc(-c3ccccc3Cl)c2=O)c1 [Example 74, 3-(2-Chlorophenyl)-5-(2-pyridyl)-1-(3-methoxyphenyl)-1,2-dihydropyridin-2-one]	200 nM	–
–	N#Cc1ccccc1-c1cc(-c2ccccn2)cn(-c2cccc(C(F)(F)F)c2)c1=O [Example 104, 3-(2-Cyanophenyl)-5-(2-pyridyl)-1-(3-trifluoromethylphenyl)-1,2-dihydropyridin-2-one]	200 nM	–
–	CNc1cccc(-n2cc(-c3ccccn3)cc(-c3ccccc3C#N)c2=O)c1 [Example 11, 3-(2-Cyanophenyl)-5-(2-pyridyl)-1-(3-methylaminophenyl)-1,2-dihydropyridin-2-one]	60 nM	–
600 nM	N#Cc1ncccc1-c1cc(-c2ccccn2)cn(-c2cccnc2)c1=O [Example 294, 3-(2-Cyanopyridin-3-yl)-5-(2-pyridyl)-1-(3-pyridyl)-1,2-dihydropyridin-2-one]	–	–
300 nM	CN(C)CCOc1cccc(-n2cc(-c3ccccn3)cc(-c3ccccc3C#N)c2=O)c1 [Example 239, 3-(2-Cyanophenyl)-1-[3-(dimethylaminoethoxy)phenyl]-5-(2-pyridyl)-1,2-dihydropyridin-2-one]	–	–
3600 nM	CN(C)CCOc1cccc(-c2cc(-c3ccccn3)cn(-c3ccccc3)c2=O)c1 [Example 247, 3-[3-(Dimethylaminoethoxy)phenyl]-1-phenyl-5-(2-pyridyl)-1,2-dihydropyridin-2-one]	–	–
2200 nM	O=c1c(-c2ccccc2O)cc(-c2ccccn2)cn1-c1ccc(F)cc1 [Example 142, 3-(2-Hydroxyphenyl)-5-(2-pyridyl)-1-(4-fluorophenyl)-1,2-dihydropyridin-2-one]	–	–
–	O=c1c(-c2cccnc2F)cc(-c2ccccn2)cn1-c1cccc(F)c1 [Example 88, 3-(2-Fluoro-3-pyridyl)-5-(2-pyridyl)-1-(3-fluorophenyl)-1,2-dihydropyridin-2-one]	300 nM	–
–	N#Cc1ccccc1-c1cc(-c2ccccn2)cn(-c2ccc(N3CCCC3)nc2)c1=O [Example 112, 3-(2-Cyanophenyl)-5-(2-pyridyl)-1-[2-(pyrrolidin-1-yl)-pyridin-5-yl]-1,2-dihydropyridin-2-one]	600 nM	–
–	Cc1cccc2[nH]c(-c3cc(-c4ccccc4C#N)c(=O)n(-c4ccccc4)c3)nc12 [Example 352, 3-(2-Cyanophenyl)-5-(4-methyl-1H-benzimidazol-2-yl)-1-phenyl-1,2-dihydropyridin-2-one]	–	IC50 [1]: 1600 nM
3700 nM	O=c1c(-c2cncnc2)cc(-c2ccccn2)cn1-c1ccccc1 [Example 257, 1-Phenyl-3-(5-pyrimidinyl)-5-(2-pyridyl)-1,2-dihydropyridin-2-one]	–	–
–	N#Cc1ccccc1-c1cc(-c2ccccn2)c(=O)n(-c2ccccc2)c1 [Example 33, 3-(2-Pyridyl)-5-(2-cyanophenyl)-1-phenyl-1,2-dihydropyridin-2-one]	700 nM	–
–	N#Cc1ccccc1-c1cc(-c2ccccn2)cn(-c2cccc(F)c2)c1=O [Example 92, 3-(2-Cyanophenyl)-5-(2-pyridyl)-1-(3-fluorophenyl)-1,2-dihydropyridin-2-one]	50 nM	–
–	N#Cc1sccc1-c1cc(-c2ccccn2)cn(-c2ccccc2)c1=O [Example 391, 3-(2-Cyanothiophen-3-yl)-5-(2-pyridyl)-1-phenyl-1,2-dihydropyridin-2-one]	–	IC50 [1]: 100 nM
–	COc1ccncc1-n1cc(-c2ccccn2)cc(-c2cccnc2F)c1=O [Example 86, 3-(2-Fluoro-3-pyridyl)-5-(2-pyridyl)-1-(4-methoxy-3-pyridyl)-1,2-dihydropyridin-2-one]	1900 nM	–
–	O=c1c(-c2cccc(Cl)c2)cc(-c2ccccn2)cn1-c1ccccc1 [Example 65, 3-(3-Chlorophenyl)-5-(2-pyridyl)-1-phenyl-1,2-dihydropyridin-2-one]	600 nM	–
500 nM	COc1cccc(-c2cc(-c3ccccc3C#N)c(=O)n(-c3ccccc3)c2)n1 [Example 206, 3-(2-Cyanophenyl)-5-(2-methoxypyridin-6-yl)-1-phenyl-1,2-dihydropyridin-2-one]	–	–
–	N#Cc1ccccc1-c1cc(-c2ccccn2)cn(-c2ccc(OCCO)nc2)c1=O [Example 119, 3-(2-Cyanophenyl)-5-(2-pyridyl)-1-(2-hydroxyethoxypyridin-5-yl)-1,2-dihydropyridin-2-one]	1700 nM	–
–	N#Cc1cccc(-n2cc(-c3ccccn3)cc(-c3ccccc3C#N)c2=O)c1 [Example 94, 3-(2-Cyanophenyl)-5-(2-pyridyl)-1-(3-cyanophenyl)-1,2-dihydropyridin-2-one]	1500 nM	–
5200 nM	N#Cc1ccccc1-c1cc(-c2cccc3ccccc23)cn(-c2cccnc2)c1=O [Example 210, 3-(2-Cyanophenyl)-5-(1-naphthyl)-1-(3-pyridyl)-1,2-dihydropyridin-2-one]	–	–
100 nM	N#Cc1ccccc1-c1cc(-c2ncccn2)cn(-c2cccc([N+](=O)[O-])c2)c1=O [Example 266, 3-(2-Cyanophenyl)-1-(3-nitrophenyl)-5-(2-pyrimidinyl)-1,2-dihydropyridin-2-one]	–	–
–	O=c1c(-c2nc3ccc(Cl)cc3[nH]2)cc(-c2ccccn2)cn1-c1ccccc1 [Example 355, 3-(6-Chloro-1H-benzimidazol-2-yl)-5-(2-pyridyl)-1-phenyl-1,2-dihydropyridin-2-one]	–	IC50 [1]: 200 nM
–	O=c1c(-c2ccccc2)cc(-c2ccccn2)cn1-c1ccc(F)cc1 [Example 98, 3-Phenyl-5-(2-pyridyl)-1-(4-fluorophenyl)-1,2-dihydropyridin-2-one]	600 nM	–
–	O=c1c(-c2ccccc2Cl)cc(-c2ccccn2)cn1-c1ccc(F)cc1 [Example 99, 3-(2-Chlorophenyl)-5-(2-pyridyl)-1-(4-fluorophenyl)-1,2-dihydropyridin-2-one]	100 nM	–
–	O=c1c(N(Cc2ccccc2)Cc2ccccc2)cc(-c2ccccn2)cn1-c1ccccc1 [Example 314, 3-Dibenzylamino-1-phenyl-5-(2-pyridyl)-1,2-dihydropyridin-2-one]	–	IC50 [1]: 4600 nM

SMILES	IC50 [2]	IC50 [3]	further results
N#CCc1ccc(-n2cc(-c3ccccn3)cc(-c3ccccc3C#N)c2=O)cc1 [Example 150, 3-(2-Cyanophenyl)-5-(2-pyridyl)-1-(4-cyanomethylphenyl)-1,2-dihydropyridin-2-one]	300 nM	–	–
N#Cc1ccccc1-c1cc(-c2ccccn2)cn(-c2ccccn2)c1=O [Example 159, 3-(2-Cyanophenyl)-1-(2-pyridyl)-5-(2-pyridyl)-1,2-dihydropyridin-2-one]	1600 nM	–	–
